Laboratory results taken from patent US20250197461A1, “Insect-derived short peptide for improving abscisic acid (ABA) content in cruciferous plant” (Gannan Normal University, priority 2023, published 2025).

Test system: Arabidopsis thaliana leaves
Experiment: Non-targeted metabolomics of Arabidopsis thaliana leaves treated with short peptide
Format: in vivo
Conditions: 0.01 mg/mL, vs GFP control
Protocol: In this experiment, the materials used for metabonomics analysis and phytohormone detection are Arabidopsis thaliana samples with consistent growth status. Synthetic short peptide of GSS1-PI with the corresponding concentration and mass was weighed and dissolved in 0.1% DMSO to obtain a 0.01 mg/mL treatment solution. A wild-type Arabidopsis thaliana plant of about four weeks old was taken, two cotyledons were collected and mechanically damaged to obtain three small holes, 2 μL of the GSS1-PI solution was added dropwise into each small hole, while GFP solution was used as the control group. After 24 h and 48 h of treatment, approximately 0.2 g of Arabidopsis thaliana leaves were collected, and each treatment had three biological replicates. The leaves were quickly placed in liquid nitrogen and stored in a −80° C. ultra-low temperature refrigerator for subsequent phytohormone group detection and metabolomic analysis.
100 mg of Arabidopsis thaliana leaves was taken and added with liquid nitrogen for full grinding, and the fine powder was put in a 1.5 mL centrifuge tube. 500 μL of 80% methanol aqueous solution was pipette in the centrifuge tube and subjected to vortex oscillation to mix well, and the centrifuge tube was put on ice for 5 min. After standing, the mixture was centrifuged at 15000 g at 4° C. for 20 min. Then, 200 μL of supernatant was pipette and diluted with appropriate amount of mass spectrometry water until the methanol content in the solution was 53%. The dilution was centrifuged again for 20 min, the supernatant was retained and loaded for LC-MS analysis of the sample.
Related instruments were set as follows: chromatographic column temperature: 40° C.; injection flow rate: 0.2 mL/min; Positive ion mode: 0.1% formic acid for mobile phase A; mass grade methanol for mobile phase B; Negative ion mode: 5 mM ammonium acetate for mobile phase A, and mass grade methanol for mobile phase B.
The scanning range was m/z 100-1500: the setting of ESI signal source was as follows: spray voltage: […]; sheath gas flow rate: 35 psi; auxiliary gas flow rate: 10 L/min; ion transport tube temperature: 320° C.; iontophoresis RF frequency: 60; auxiliary heater temperature: 350° C.; MS/MS secondary scanning is set to dependency scanning data.
After the experiment was completed, the relevant data files were imported into the database search software for analysis and processing, and the residence time, mass-to-charge ratio and other related parameters of each metabolite were simply screened and checked. In order to identify more accurately, the different samples were peak-aligned, with the retention time deviation of 0.2 min and mass deviation of 5 ppm. Then peak extraction and peak area quantification were carried out to integrate the target ions, and then ion peaks were predicted by molecular formula and compared with local data. In order to remove the interference of background ions, the original quantitative results were standardized and blank sample controls were added. Finally, the relative quantitative results of the relevant metabolites were obtained and identified.
Multivariate statistical analysis of metabolite data included two parts, component analysis (PCA) and partial least squares discriminant analysis (PLS-DA). The data was converted by metaX, a metabonomics processing software, to get the VIP value of each metabolite. In univariate analysis, the statistical significance (P value) between the two groups of metabolites was analyzed by t test, and the fold change of metabolites between the two groups, that is, FC value, was calculated. The default screening criteria for differential metabolites were VIP>1, P value<0.05 and FC≥2 or FC≤0.5.

PDYKQKLRDSKAWESLETIGIPLDADVM (insect-derived short peptide) [GSS1-PI]
log2FC 2-Phenylacetamide (24 h): 0.608 | log2FC 3,4,5-Trimethoxycinnamic acid (24 h): −1.348 | log2FC (−)-chimonanthine (24 h): 0.731 | log2FC Coumarin (24 h): −1.039 | log2FC Cytosine (24 h): 1.096 | log2FC Eriodictyol (24 h): 0.908 | log2FC Gracillin (24 h): −1.823 | log2FC Hesperidin (24 h): 0.708 | log2FC Hippuric acid (24 h): −0.465 | log2FC L-arginine (24 h): −0.600 | log2FC Madecassic acid (24 h): 1.041 | log2FC Methyl dihydrojasmonate (24 h): 0.784 | log2FC N-Methyltryptamine (24 h): −0.651 | log2FC Ptaquiloside (24 h): −1.418 | log2FC Quercetin 3-O-sophoroside (24 h): −2.173 | log2FC Rhoifolin (24 h): 0.699 | log2FC Spectinomycin (24 h): 0.579 | log2FC Tiglic acid (24 h): −0.663 | log2FC cis-2-Decenoic acid (24 h): −0.599 | log2FC α-Linolenoyl ethanolamide (24 h): 1.586 | log2FC 2′-O-Methyladenosine (48 h): 1.543 | log2FC 3,4,5-Trimethoxycinnamic acid (48 h): −2.132 | log2FC 5α-Dihydrotestosterone glucuronide (48 h): −1.186 | log2FC 5′-Deoxy-5′-(Methylthio)Adenosine (48 h): 1.330 | log2FC 20-Hydroxyecdysone (48 h): −1.153 | log2FC Allantoic acid (48 h): −1.815 | log2FC Alpha-Mangostin (48 h): 1.363 | log2FC Benzamide (48 h): 1.564 | log2FC Camelliaside A (48 h): 1.640 | log2FC Cimifugin (48 h): 1.872 | log2FC Coumarin (48 h): −1.930 | log2FC Cucurbitacin E (48 h): 1.309 | log2FC DL-Methionine (48 h): 1.393 | log2FC DL-Panthenol (48 h): 1.615 | log2FC N-(p-Coumaroyl) serotonin (48 h): −1.010 | log2FC Neopterin (48 h): 1.709 | log2FC Saikosaponin B4 (48 h): −1.655 | log2FC Sclareolide (48 h): −2.003 | log2FC Scopoletin (48 h): −1.518 | log2FC Sinapinic acid (48 h): −1.203
